Source: ChEMBL document CHEMBL1156263, “Single agents with designed combination chemotherapy potential: synthesis and evaluation of substituted pyrimido[4,5-b]indoles as receptor tyrosine kinase and thymidylate synthase inhibitors and as antitumor agents” (J Med Chem, 2010)
Activity calls are given as the source filed them. No cut-off for these calls is given here.

Key:
[1] = target: T1, Receptor-type tyrosine-protein kinase FLT3 (Homo sapiens, UniProt P36888); assay: Inhibition of Flt3 activity in human […] cells by phosphotyrosine cell-based ELISA
T1 sequence (P36888 whole entry): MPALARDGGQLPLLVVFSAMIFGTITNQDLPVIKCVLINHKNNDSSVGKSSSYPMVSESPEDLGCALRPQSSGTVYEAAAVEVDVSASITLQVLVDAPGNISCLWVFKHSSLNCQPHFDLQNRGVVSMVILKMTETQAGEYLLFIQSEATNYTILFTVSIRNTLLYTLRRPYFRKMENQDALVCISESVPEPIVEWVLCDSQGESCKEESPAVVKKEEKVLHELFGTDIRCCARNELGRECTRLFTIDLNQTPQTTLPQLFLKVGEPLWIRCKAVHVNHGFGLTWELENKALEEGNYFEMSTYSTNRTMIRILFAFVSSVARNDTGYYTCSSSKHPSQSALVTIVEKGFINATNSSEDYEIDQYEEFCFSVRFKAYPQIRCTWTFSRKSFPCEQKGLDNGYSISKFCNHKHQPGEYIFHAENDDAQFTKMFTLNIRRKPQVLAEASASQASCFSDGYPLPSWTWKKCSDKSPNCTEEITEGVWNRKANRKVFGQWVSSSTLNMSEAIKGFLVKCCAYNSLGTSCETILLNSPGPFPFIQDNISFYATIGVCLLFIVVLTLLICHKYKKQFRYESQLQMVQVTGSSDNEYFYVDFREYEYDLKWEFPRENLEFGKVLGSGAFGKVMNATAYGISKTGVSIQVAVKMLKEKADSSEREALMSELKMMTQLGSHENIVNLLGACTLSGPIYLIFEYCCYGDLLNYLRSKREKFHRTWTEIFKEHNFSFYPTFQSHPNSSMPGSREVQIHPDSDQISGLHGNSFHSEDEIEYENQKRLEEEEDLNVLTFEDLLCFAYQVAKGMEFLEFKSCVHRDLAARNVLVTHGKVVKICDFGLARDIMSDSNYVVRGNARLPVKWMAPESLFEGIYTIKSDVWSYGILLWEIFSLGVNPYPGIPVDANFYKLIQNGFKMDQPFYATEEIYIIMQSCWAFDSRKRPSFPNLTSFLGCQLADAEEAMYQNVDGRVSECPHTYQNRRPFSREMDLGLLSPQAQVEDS

[2] = target: T2, Mitogen-activated protein kinase; ERK1/ERK2 (Homo sapiens) (UniProt P27361+P28482); assay: Reduction of ERK1/2 activation in human MDA-MB-435 cells at 20 uM after 1 hr by Western blot analysis; format: cell-based
T2 sequence (P27361 whole entry, looked up): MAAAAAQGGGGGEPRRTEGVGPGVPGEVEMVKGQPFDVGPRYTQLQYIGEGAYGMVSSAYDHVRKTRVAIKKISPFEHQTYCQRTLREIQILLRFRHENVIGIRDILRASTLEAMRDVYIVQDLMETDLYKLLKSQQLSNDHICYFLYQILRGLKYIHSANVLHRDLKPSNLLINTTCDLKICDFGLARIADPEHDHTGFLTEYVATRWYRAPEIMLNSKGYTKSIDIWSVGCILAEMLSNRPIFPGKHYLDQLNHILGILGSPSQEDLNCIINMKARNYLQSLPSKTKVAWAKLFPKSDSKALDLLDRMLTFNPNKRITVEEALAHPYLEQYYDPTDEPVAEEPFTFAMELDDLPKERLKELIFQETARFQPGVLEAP
T2 sequence (P28482 whole entry, looked up): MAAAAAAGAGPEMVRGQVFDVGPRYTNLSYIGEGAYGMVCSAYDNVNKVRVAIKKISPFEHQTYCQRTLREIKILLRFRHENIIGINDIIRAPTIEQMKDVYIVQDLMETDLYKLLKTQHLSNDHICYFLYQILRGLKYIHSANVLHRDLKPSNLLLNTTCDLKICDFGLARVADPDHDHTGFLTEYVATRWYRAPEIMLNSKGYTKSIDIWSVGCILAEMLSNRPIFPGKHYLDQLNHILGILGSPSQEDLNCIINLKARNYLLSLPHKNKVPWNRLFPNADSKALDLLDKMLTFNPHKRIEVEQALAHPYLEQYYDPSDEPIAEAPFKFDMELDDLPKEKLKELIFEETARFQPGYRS

Dihydrofolate reductase = target: T3, Dihydrofolate reductase (Homo sapiens, UniProt P00374); assay: Inhibition of human DHFR
T3 sequence (P00374 whole entry): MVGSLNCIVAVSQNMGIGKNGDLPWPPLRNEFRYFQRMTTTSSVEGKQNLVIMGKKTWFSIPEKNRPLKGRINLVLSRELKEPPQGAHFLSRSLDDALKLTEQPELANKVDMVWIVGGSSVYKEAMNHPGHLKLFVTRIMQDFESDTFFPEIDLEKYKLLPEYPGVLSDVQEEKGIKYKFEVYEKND

[3] = target: T4, Dihydrofolate reductase (Escherichia coli) (UniProt P0ABQ4); assay: Inhibition of Escherichia coli DHFR at IC50
T4 sequence (whole entry): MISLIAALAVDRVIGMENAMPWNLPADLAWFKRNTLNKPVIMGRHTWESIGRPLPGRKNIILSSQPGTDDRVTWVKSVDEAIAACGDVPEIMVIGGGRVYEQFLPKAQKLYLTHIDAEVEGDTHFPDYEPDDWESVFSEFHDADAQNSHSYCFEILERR

[4] = target: T5, Dihydrofolate reductase (Homo sapiens) (UniProt P00374); assay: Inhibition of human DHFR at IC50
T5 sequence (whole entry): T3 sequence (P00374 whole entry)

[5] = target: Vascular endothelial growth factor receptor 1 (Homo sapiens, UniProt P17948); assay: Inhibition of VEGFR1 in human A498 cells by phosphotyrosine cell-based ELISA
Vascular endothelial growth factor receptor 1, sequence (P17948 whole entry): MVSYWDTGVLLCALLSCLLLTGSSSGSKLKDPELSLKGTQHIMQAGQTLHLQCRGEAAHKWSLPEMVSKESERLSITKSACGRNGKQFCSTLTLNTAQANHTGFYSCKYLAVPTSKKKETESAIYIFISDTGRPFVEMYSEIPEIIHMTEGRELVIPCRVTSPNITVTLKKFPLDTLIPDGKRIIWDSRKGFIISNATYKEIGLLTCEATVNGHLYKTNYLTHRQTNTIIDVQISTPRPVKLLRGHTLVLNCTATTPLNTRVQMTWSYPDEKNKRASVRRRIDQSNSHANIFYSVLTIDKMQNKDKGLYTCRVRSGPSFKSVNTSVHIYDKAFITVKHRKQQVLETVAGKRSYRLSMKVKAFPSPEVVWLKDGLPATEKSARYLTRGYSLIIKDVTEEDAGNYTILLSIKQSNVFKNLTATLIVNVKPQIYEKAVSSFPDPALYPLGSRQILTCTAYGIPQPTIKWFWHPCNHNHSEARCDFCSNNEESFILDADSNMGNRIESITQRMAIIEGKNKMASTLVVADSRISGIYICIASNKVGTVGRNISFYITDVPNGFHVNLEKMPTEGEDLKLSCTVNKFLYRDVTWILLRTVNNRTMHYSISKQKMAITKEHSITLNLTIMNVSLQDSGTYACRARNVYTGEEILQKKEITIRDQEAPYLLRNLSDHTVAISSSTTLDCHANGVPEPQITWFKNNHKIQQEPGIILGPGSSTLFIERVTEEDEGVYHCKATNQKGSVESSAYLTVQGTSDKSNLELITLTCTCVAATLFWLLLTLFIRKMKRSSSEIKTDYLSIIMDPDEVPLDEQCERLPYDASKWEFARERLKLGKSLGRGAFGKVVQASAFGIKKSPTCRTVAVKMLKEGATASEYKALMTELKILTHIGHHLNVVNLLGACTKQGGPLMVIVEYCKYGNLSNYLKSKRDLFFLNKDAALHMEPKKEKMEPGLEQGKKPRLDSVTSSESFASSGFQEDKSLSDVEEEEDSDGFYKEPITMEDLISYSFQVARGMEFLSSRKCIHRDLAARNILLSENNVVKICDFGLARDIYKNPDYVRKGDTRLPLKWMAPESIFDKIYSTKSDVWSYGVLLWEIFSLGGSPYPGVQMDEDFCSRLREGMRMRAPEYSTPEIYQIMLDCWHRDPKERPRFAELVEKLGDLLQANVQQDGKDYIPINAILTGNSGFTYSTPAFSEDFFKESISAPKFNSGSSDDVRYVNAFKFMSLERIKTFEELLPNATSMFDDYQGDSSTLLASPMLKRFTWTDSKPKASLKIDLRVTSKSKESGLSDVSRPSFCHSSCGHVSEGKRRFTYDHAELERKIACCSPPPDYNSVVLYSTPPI

[6] = target: T2, Mitogen-activated protein kinase; ERK1/ERK2 (Homo sapiens); assay: Reduction of ERK1/2 activation in human MDA-MB-435 cells at 20 uM after 4 hrs by Western blot analysis; format: cell-based
[7] = target: Epidermal growth factor receptor (Homo sapiens, UniProt P00533)
[8] = target: Platelet-derived growth factor receptor beta (Homo sapiens, UniProt P09619); assay: Inhibition of PDGFRbeta in human SF539 cells by phosphotyrosine cell-based ELISA; parameters: species or system SF-539
Platelet-derived growth factor receptor beta, sequence (P09619 whole entry): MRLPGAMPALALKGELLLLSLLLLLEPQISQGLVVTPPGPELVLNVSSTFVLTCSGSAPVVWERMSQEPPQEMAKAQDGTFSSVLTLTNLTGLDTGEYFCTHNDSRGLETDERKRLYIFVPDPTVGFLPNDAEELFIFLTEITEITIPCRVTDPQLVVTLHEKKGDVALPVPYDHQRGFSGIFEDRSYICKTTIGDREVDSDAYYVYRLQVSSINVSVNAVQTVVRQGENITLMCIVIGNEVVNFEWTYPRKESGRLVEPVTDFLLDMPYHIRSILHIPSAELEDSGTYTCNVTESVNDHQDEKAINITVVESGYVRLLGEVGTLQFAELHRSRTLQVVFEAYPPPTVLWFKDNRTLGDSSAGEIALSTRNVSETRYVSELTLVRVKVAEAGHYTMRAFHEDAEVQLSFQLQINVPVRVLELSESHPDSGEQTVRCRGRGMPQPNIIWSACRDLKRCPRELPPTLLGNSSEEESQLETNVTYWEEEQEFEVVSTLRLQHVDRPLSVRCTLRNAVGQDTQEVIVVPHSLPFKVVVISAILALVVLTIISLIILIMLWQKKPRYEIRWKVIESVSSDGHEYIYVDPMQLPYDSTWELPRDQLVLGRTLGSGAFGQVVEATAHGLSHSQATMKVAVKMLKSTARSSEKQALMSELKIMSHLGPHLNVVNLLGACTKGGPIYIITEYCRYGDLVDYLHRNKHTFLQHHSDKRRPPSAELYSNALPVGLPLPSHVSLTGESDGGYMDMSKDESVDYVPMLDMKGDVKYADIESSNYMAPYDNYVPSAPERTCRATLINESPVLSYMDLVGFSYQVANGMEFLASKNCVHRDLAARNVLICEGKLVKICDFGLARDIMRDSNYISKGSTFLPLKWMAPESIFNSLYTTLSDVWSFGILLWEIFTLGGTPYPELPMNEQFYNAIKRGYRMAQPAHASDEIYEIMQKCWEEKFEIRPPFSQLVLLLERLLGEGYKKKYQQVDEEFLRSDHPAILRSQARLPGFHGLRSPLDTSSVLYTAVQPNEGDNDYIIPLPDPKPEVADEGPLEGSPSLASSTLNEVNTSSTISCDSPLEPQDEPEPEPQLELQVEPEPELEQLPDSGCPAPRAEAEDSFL

[9] = target: Vascular endothelial growth factor receptor 2 (Homo sapiens, UniProt P35968)
Vascular endothelial growth factor receptor 2, sequence (P35968 whole entry): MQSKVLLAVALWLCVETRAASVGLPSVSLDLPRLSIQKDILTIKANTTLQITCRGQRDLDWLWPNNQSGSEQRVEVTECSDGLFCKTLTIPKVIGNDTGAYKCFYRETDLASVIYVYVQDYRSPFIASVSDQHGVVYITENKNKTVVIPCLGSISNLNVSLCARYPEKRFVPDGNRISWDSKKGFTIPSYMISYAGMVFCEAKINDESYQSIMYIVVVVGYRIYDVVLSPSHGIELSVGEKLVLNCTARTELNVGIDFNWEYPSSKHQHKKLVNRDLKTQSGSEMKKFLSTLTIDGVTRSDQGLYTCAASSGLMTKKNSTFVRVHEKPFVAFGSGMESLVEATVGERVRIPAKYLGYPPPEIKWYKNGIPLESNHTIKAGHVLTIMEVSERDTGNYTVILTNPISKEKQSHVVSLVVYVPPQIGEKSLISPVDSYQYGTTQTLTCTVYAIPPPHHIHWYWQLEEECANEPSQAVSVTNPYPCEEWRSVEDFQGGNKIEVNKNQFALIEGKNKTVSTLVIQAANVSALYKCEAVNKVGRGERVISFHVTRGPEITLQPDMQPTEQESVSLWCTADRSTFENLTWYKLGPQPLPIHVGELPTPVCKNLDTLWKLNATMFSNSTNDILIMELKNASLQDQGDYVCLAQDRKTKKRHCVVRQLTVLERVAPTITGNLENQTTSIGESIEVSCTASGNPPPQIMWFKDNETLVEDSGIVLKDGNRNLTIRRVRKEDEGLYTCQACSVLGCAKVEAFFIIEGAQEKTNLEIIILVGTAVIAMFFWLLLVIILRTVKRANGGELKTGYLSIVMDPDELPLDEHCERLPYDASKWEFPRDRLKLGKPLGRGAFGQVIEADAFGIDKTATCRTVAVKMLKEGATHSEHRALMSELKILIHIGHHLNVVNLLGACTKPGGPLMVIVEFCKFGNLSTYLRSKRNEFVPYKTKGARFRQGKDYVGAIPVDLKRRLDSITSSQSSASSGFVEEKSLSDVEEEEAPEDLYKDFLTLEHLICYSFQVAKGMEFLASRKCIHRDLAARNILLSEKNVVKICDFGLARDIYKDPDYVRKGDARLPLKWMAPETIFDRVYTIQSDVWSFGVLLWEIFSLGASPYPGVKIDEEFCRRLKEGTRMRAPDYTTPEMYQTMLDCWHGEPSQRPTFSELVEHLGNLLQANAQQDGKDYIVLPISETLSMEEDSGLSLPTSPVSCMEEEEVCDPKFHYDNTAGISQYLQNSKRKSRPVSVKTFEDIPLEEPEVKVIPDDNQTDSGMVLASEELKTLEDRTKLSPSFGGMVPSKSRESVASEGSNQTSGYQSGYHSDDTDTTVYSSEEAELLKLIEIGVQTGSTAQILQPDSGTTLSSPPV

Row | IC50 [1] | IC50 [7] | IC50 [8] | IC50 [9] | SMILES | Activity [2] | IC50 (Dihydrofolate reductase) | inhibition [3] | inhibition [4] | IC50 [5] | Activity [6]
1 | 2.9 µM |  |  |  | COc1ccc(C(=O)Nc2sc3c(c2C(N)=O)CCCC3)cc1OC |  |  |  |  |  | 
2 | 39.6 µM | 10.4 µM | 40.3 µM | 56.3 µM | Cc1ccc(Sc2cccc3[nH]c4nc(N)nc(N)c4c23)cc1 | Active | > 31 µM | 27% | 7% | 160 µM | Active

Row | SMILES | IC50 [1] | IC50 [7] | IC50 [8] | IC50 [9] | Activity [2] | IC50 (Dihydrofolate reductase) | inhibition [3] | inhibition [4] | IC50 [5] | Activity [6]
3 | Nc1nc(N)c2c(n1)[nH]c1cccc(Sc3ccccc3)c12 | 41.2 µM |  |  |  | Active | > 33 µM | 35% | 17% | 118 µM | Active
